US9234200B2, “Oligonucleotide, glucocorticoid sensitivity enhancer, pharmaceutical composition, and expression vector” (National University Corporation Tokyo University of …, priority 2011, dated 2016)
Where two headings read alike, the source gives them in different places.

Columns and labels:
Raji cells [1] = assay: BrdU incorporation assay, glucocorticoid sensitivity of oligonucleotide-transfected Raji cells; assay type: cell-based, human; details: for BrdU incorporation: absorbance at 450 nm
Method: In order to examine the change of glucocorticoid sensitivity of cells caused by introduction of oligonucleotide 1, cell proliferation was quantified by a 5-bromo-2′-deoxyuridine (BrdU) incorporation assay. Dexamethasone (manufactured by Biomol) was used as a glucocorticoid. The concentration of dexamethasone was set to varied concentrations of 0 μM (no addition), 0.1 μM, 0.5 μM, 1 μM, 5 μM, and 10 μM.
Raji cells were cultured in serum-free RPMI1640 medium for 12 hours to synchronize the cell cycle, and then re-suspended in RPMI1640 medium supplemented with serum and inoculated onto a 96-well plate.
After dexamethasone was added, the cells were cultured for 22 hours. Then, BrdU was added thereto, and the cells were cultured for another 2 hours. After centrifugation, the supernatant was discarded, and the cells were dried and fixed. The fixed cells were allowed to react with a peroxidase-labeled anti-BrdU antibody for 1 hour at room temperature. Subsequently, the cells were washed three times with PBS, and tetramethylbenzidine was added thereto. When noticeable coloring was observed, the reaction was stopped by adding H2SO4 (1M). After vigorous agitation, absorbance at 450 nm was measured using a plate reader.
Using the Raji cells to which dexamethasone was not added as a control, cell proliferation inhibitory rate (%) was calculated based on the relative ratio of the obtained absorbance. Here, statistical significance was assessed with one-way analysis of variance and multiple comparison. Tukey's multiple comparison was used for the multiple comparison. A significance level of P<0.05 (vs. no addition of oligonucleotide) was regarded as a significant difference.
BrdU incorporation assay was performed in the same manner as in the above, and alternation of the glucocorticoid sensitivity of the cells caused by the introduction of any one of oligonucleotides 2 to 5 was examined. Each experiment was carried out in quadruplicate. The values shown in Table 7 are average values thereof.

Raji cells [2] = assay: BrdU incorporation assay, glucocorticoid sensitivity of oligonucleotide 4-expressing Raji cells; assay type: cell-based, human; details: for BrdU incorporation: absorbance
Method: In order to examine the glucocorticoid sensitivity of the oligonucleotide 4-expressin Raji cells, BrdU incorporation assay was performed in the same manner as in Example 2, and cell proliferation was quantified. The concentration of dexamethasone was set to 0 μM (no addition) or 5 μM. Each experiment was repeated in triplicate. The values shown in Table 13 are average of thereof.

GRα and GRβ [3] = assay: GRα and GRβ expression levels in oligonucleotide 4-expressing Raji cells
GRα and GRβ [4] = assay: GRα and GRβ expression levels in Raji cells transfected with oligonucleotide (RT-PCR and PCR); assay type: cell-based, human;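 as to GAPDH: mean of three independent experiments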
Method: Raji cells (manufactured by Japan Health Science Foundation) derived from human Burkitt's lymphoma were used in experiments.
Raji cells were cultured and maintained in RPMI1640 medium (manufactured by Gibco) at 37° C. in an atmosphere of 5% CO2, the RPMI1640 medium being supplemented with 10% fetal bovine serum (FBS) (manufactured by Filtoron), 100 U/ml penicillin, and 100 μg/ml streptomycin.
2×10^6 Raji cells were washed with phosphate-buffered saline (PBS) and suspended in 100 μl transfection reagent of an Amaxa cell line Nucleofector Kit V (manufactured by Lonza).
After the Raji cells were cultured in the above-described medium for 24 hours, the Raji cells were used for subsequent experiments.
The expression level of glyceraldehyde-3-phosphate dehydrogenase (GAPDH) was determined as an endogenous control.
After the Raji cells were washed with PBS, RNA was extracted using a FastPure RNA Kit (manufactured by Takara Bio Inc.), and reverse transcription was performed using a PrimeScript 1st strand cDNA synthesis kit (manufactured by Takara Bio Inc.). The obtained cDNA was amplified using Platinum Taq DNA polymerase (manufactured by Invitrogen) and PCR primers (having the base sequences shown in Table 2) specific for the gene of interest. The PCR conditions included: performing initial denaturation at 94° C. for 2 minutes; performing 35 cycles of denaturation (94° C. for 30 seconds), annealing (55° C. for 30 seconds), and extension (72° C. for 1 minute); and then performing final extension at 72° C. for 4 minutes.
After the PCR was performed, DNA was separated by […] electrophoresis on a 2% agarose gel containing ethidium bromide, and the intensity of bands was quantified using an image analyzer GEL PRINT 2000i/VGA (manufactured by Genomic Solutions).

[5] = Raji cells constitutively expressing oligonucleotide 4
[6] = expression level (band intensity), Raji cells constitutively expressing oligonucleotide 4 (retrovirus vector)
[7] = expression level (band intensity), Raji cells constitutively expressing oligonucleotide 4 (retrovirus vector), listed as oligonucleotide 4
[8] = expression level (band intensity), oligonucleotide 300 nM by electroporation, 24 h

Q: Which results are given for `C[C@@H]1C[C@H]2[C@@H]3CCC4=CC(=O)C=C[C@]4(C)[C@@]3(F)[C@@H](O)C[C@]2(C)[C@@]1(O)C(=O)CO` [dexamethasone, reference compound]?
A: inhibition at 0.1 µM (Raji cells [1]; Homo sapiens, Raji, dexamethasone 0.1 μM vs no dexamethasone, triplicate, label dexamethasone = no oligonucleotide introduced, read-out: cell proliferation inhibitory rate): 13.4%; inhibition at 0.1 µM (Raji cells [1]; Homo sapiens, Raji, dexamethasone 0.1 μM, quadruplicate (Table 7), label dexamethasone = no oligonucleotide transfected, read-out: cell proliferation inhibitory rate): 13.2%; inhibition at 0.5 µM (Raji cells [1]; Homo sapiens, Raji, dexamethasone 0.5 μM vs no dexamethasone, triplicate, label dexamethasone = no oligonucleotide introduced, read-out: cell proliferation inhibitory rate): 16.2%; inhibition at 0.5 µM (Raji cells [1]; Homo sapiens, Raji, dexamethasone 0.5 μM, quadruplicate (Table 7), label dexamethasone = no oligonucleotide transfected, read-out: cell proliferation inhibitory rate): 17.6%; inhibition at 1 µM (Raji cells [1]; Homo sapiens, Raji, dexamethasone 1 μM vs no dexamethasone, triplicate, label dexamethasone = no oligonucleotide introduced, read-out: cell proliferation inhibitory rate): 12.6%; inhibition at 1 µM (Raji cells [1]; Homo sapiens, Raji, dexamethasone 1 μM, quadruplicate (Table 7), label dexamethasone = no oligonucleotide transfected, read-out: cell proliferation inhibitory rate): 22.2%; inhibition at 5 µM (Raji cells [1]; Homo sapiens, Raji, dexamethasone 5 μM vs no dexamethasone, triplicate, label dexamethasone = no oligonucleotide introduced, read-out: cell proliferation inhibitory rate): 23.3%; inhibition at 5 µM (Raji cells [1]; Homo sapiens, Raji, dexamethasone 5 μM, quadruplicate (Table 7), label dexamethasone = no oligonucleotide transfected, read-out: cell proliferation inhibitory rate): 21.7%; inhibition at 10 µM (Raji cells [1]; Homo sapiens, Raji, dexamethasone 10 μM vs no dexamethasone, triplicate, label dexamethasone = no oligonucleotide introduced, read-out: cell proliferation inhibitory rate): 23.9%; BrdU incorporation (Raji cells [1]; dexamethasone 0.1 μM, triplicate, label dexamethasone = no oligonucleotide introduced): 0.475; BrdU incorporation (Raji cells [1]; dexamethasone 0.5 μM, triplicate, label dexamethasone = no oligonucleotide introduced): 0.461; BrdU incorporation (Raji cells [1]; dexamethasone 1 μM, triplicate, label dexamethasone = no oligonucleotide introduced): 0.479; BrdU incorporation (Raji cells [1]; dexamethasone 5 μM, triplicate, label dexamethasone = no oligonucleotide introduced): 0.422; BrdU incorporation (Raji cells [1]; dexamethasone 10 μM, triplicate, label dexamethasone = no oligonucleotide introduced): 0.418; BrdU incorporation (Raji cells [2]; dexamethasone 5 μM, label dexamethasone = Control Raji cell): 1.07

Q: For “Oligonucleotide 4: an oligonucleotide having a base sequence represented by SEQ ID NO: 4 (5′-TTTGTCCCCATTATATAGCATTT-3′) (listed as DNA, chemistry not given here)”, which “cell proliferation inhibitory rate” value (Raji cells [1]; dexamethasone 0.1 μM, quadruplicate (Table 7), label dexamethasone = no oligonucleotide transfected) is on record?
A: 12.464%

Q: And the “cell proliferation inhibitory rate” value (Raji cells [1]; dexamethasone 0.5 μM, quadruplicate (Table 7), label dexamethasone = no oligonucleotide transfected)?
A: 23.397%

Q: What about the “cell proliferation inhibitory rate” value (Raji cells [1]; dexamethasone 1 μM, quadruplicate (Table 7), label dexamethasone = no oligonucleotide transfected) of the same molecule?
A: 28.863%

Q: What about the “cell proliferation inhibitory rate” value (Raji cells [1]; dexamethasone 5 μM, quadruplicate (Table 7), label dexamethasone = no oligonucleotide transfected) of the same molecule?
A: 28.061%

Q: And the GRα/GAPDH (GRα and GRβ [3]; [5])?
A: 0.747

Q: And the GRβ/GAPDH (GRα and GRβ [3]; [5])?
A: 0.290

Q: And the GAPDH (GRα and GRβ [3]; expression level (band intensity), endogenous control, Raji cells constitutively expressing oligonucleotide 4 (retrovirus vector))?
A: 6428.135

Q: What about the GRα (GRα and GRβ [3]; [6]) of the same molecule?
A: 4803.456

Q: What about the GRβ (GRα and GRβ [3]; [6]) of the same molecule?
A: 1866.325

Q: And the GRα (GRα and GRβ [3]; [7])?
A: increases the expression level of GRα

Q: And the GRβ (GRα and GRβ [3]; [7])?
A: decreases the expression level of GRβ

Q: And the GAPDH (GRα and GRβ [4]; expression level (band intensity), endogenous control, oligonucleotide 300 nM by electroporation, 24 h)?
A: 2991.776

Q: What about the GRα (GRα and GRβ [4]; [8]) of the same molecule?
A: 3157.440

Q: What about the GRβ (GRα and GRβ [4]; [8]) of the same molecule?
A: 4592.806

Q: What about the GRα/GAPDH (GRα and GRβ [4]; oligonucleotide 300 nM) of the same molecule?
A: 1.057

Q: And the GRβ/GAPDH (GRα and GRβ [4]; oligonucleotide 300 nM)?
A: 1.533

Q: What about the BrdU incorporation (Raji cells [2]; oligonucleotide 4-expressing Raji cell, dexamethasone 0 μM) of the same molecule?
A: 1.13

Q: What about the glucocorticoid sensitivity (Raji cells [2]; constitutive expression of oligonucleotide 4 in Raji cells, in words) of the same molecule?
A: increases glucocorticoid sensitivity
